The text below walks through data of US20090181910A1, “METHOD OF PREVENTION AND ALLEVIATION OF TOXICITY BY MODULATION OF IRF3” (priority 2006, published 2009).

For series [1], the system named is RXRα. As to the kind of experiment: Liver RNA Q-PCR, polyI:C/APAP-treated mice: RXRα. The series is classed as in vivo. To be noted: single polyI:C 100 μg i.v. 24 h before APAP 350 mg/kg i.p.; wildtype vs IRF3−/− mice; FIG. 1A. As to the method:
FIG. 1: PolyI:C repression of RXRα and cytochrome P450 family members involves IRF3. Wildtype or IRF3−/− mice (n=4) fasted and were treated with 0.1% NaCl or polyI:C (100 μg) intravenous (i.v.) 24 hours prior to treatment with APAP (350 mg/kg) by intraperitoneal (i.p.) injection. 6 hours post-APAP treatment liver samples were isolated. Liver RNA analyzed by Q-PCR for (A) RXRα (B) Cyp1A2 and (C) Cyp3A11.
Age and sex matched 6-9 week old mice were used for all experiments. C57/B16 mice were obtained from Jackson Laboratory. IRF3^−/− mice were obtained from Dr. T. Taniguchi. For APAP hepatotoxicity analysis, mice fasted for […] and then administered Vehicle (0.1% NaCl) or APAP (175-600 mg/kg) by intraperitoneal injection (i.p.). For serum and histological studies, mice were sacrificed at 6-7 hours post injection and serum and liver samples were retrieved. For survival studies, mice were studied for up to 5 days. For polyI:C studies, mice were also treated with 0.1% NaCl or polyI:C (100 μg) intravenous (i.v.) 12-24 hours prior to APAP treatment. […] Serum alanine aminotransferase (ALT) levels were determined using manufacturer's protocol (TECO Diagnostics). […]
For quantitative realtime PCR (Q-PCR), total RNA was isolated and cDNA synthesized according to manufacturer's protocol: Trizol (RNA) and Bio-Rad iScript (cDNA). […]

The subject of series [2] is RXRα. Further details: species or system mice. To be noted: mouse, in vivo.
In a further series the test system is ZF5. As to the kind of experiment: BMM Q-PCR: ZF5 mRNA. The series is classed as cell-based, Murine. To be noted: polyI:C and LPS; data not shown.
The conditions of series [3]: Hendrix et al. 1993; cited from earlier work.
A short description of series [4]: H&E liver histology in APAP hepatotoxicity. To be noted: for prevention of APAP-induced necrosis: FIG. 3A.

As for “polyinosinic:polycytidylic acid [polyI:C]”, the “RXRα mRNA in liver” value in the series with RXRα [1] is “potent downregulation of RXRα mRNA in an IRF3 dependent manner”. The “IRF3 dependence of repression of RXRα and hepatic nuclear receptor target genes” value with RXRα [2] is “IRF3 was critical for the repression of RXRα and hepatic nuclear receptor target genes”. In the series on RXRα [2] (iv), the “RXRα mRNA expression in liver” value is on record as “significant reduction in RXRα mRNA expression”. Further, the “ZF5 mRNA levels” value in the series on ZF5 was “unaffected”. Also, the “toxicity of polyI:C” value in series [3] was “can be taken at high dosages without any toxicity”. Moreover, the “prevention of cell necrosis” value in series [4] (PCN or ethanol plus lower levels of APAP, FIG. 3B) is “prevents cell necrosis in these treatments as well”. Also, the “prevention of APAP-induced necrosis” value in series [4] (mice deficient in IRF3, APAP 350 mg/kg) is on record as “only slightly reduced the severity of necrosis”; in series [4] (wildtype mice, APAP 350 mg/kg), “completely prevented such necrosis”.
